Calls of active or inactive are those of the source. The calls are words filed in the database; no cut-off is given here.
Tests used:
COLO357 [1] = assay: Antiproliferative activity against human COLO357 cells assessed as reduction in cell growth incubated for 72 hrs by MTT assay; format: functional, cell-based; conditions: COLO357, 72 h
SW-620 [2] = assay: Antiproliferative activity against human SW-620 cells assessed as reduction in cell growth incubated for 72 hrs by MTT assay; format: functional, cell-based; conditions: SW-620, 72 h
HEK293 = assay: Cytotoxicity against human HEK293 cells assessed as reduction in cell growth incubated for 72 hrs by MTT assay; format: cell-based; conditions: HEK293, 72 h
Raji = assay: Antiproliferative activity against human Raji cells assessed as reduction in cell growth incubated for 72 hrs by MTT assay; format: functional, cell-based
HaCaT = assay: Cytotoxicity against human HaCat cells assessed as reduction in cell growth incubated for 72 hrs by MTT assay; format: cell-based
PANC-1 = assay: Antiproliferative activity against human PANC-1 cells assessed as reduction in cell growth incubated for 72 hrs by MTT assay; format: functional, cell-based; conditions: PANC-1, 72 h
HeLa = assay: cells; conditions: Homo sapiens, 72 h
Description: Antiproliferative activity against human HeLa cells assessed as reduction in cell growth incubated for 72 hrs by MTT assay

[3] = Acute toxicity in C57BL/6 mouse assessed as mouse death at 5 mg/kg, iv measured after 16 hrs; format: organism-based; conditions: in vivo
[4] = Acute toxicity in iv dosed BALB/c mouse assessed as mouse death at 5 mg/kg, iv measured after 16 hrs; format: organism-based; conditions: in vivo
[5] = Acute toxicity in iv dosed CBA mouse assessed as mouse death at 5 mg/kg, iv measured after 16 hrs; format: organism-based; conditions: in vivo
[6] = Acute toxicity in iv dosed A/Sn mouse assessed as mouse death at 5 mg/kg, iv measured after 16 hrs; format: organism-based; conditions: in vivo
[7] = Acute toxicity in iv dosed CD-1 mouse assessed as mouse death at 5 mg/kg, iv measured after 16 hrs; format: organism-based; conditions: in vivo
[8] = Acute toxicity in iv dosed C57BL/6 mouse assessed as lethal dose; format: organism-based; conditions: in vivo
COLO357 [9] = assay: Induction of cell cycle arrest in human COLO357 cells assessed as accumulation at G2/M phase at 5 nM incubated for 48 hrs by RNase/PI staining based flow cytometry analysis (reference value: 13 %); format: functional
COLO357 [10] = assay: Induction of cell cycle arrest in human COLO357 cells assessed as accumulation at G1 phase at 5 nM incubated for 48 hrs by RNase/PI staining based flow cytometry analysis (reference value: 72 %); format: functional
COLO357 [11] = assay: Induction of cell cycle arrest in human COLO357 cells assessed as accumulation at apoptotic phase at 5 nM incubated for 48 hrs by RNase/PI staining based flow cytometry analysis (reference value: 1.3 %); format: functional
SW-620 [12] = assay: Induction of cell cycle arrest in human SW-620 cells assessed as accumulation at G2/M phase at 5 nM incubated for 48 hrs by RNase/PI staining based flow cytometry analysis (reference value: 16 %); format: functional
SW-620 [13] = assay: Induction of cell cycle arrest in human SW-620 cells assessed as accumulation at G1 phase at 5 nM incubated for 48 hrs by RNase/PI staining based flow cytometry analysis (reference value: 65 %); format: functional
SW-620 [14] = assay: Induction of cell cycle arrest in human SW-620 cells assessed as accumulation at apoptotic phase at 5 nM incubated for 48 hrs by RNase/PI staining based flow cytometry analysis (reference value: 0.8 %); format: functional
[15] = Acute toxicity in mouse assessed as lethal dose measured after 7 days; conditions: in vivo, time 7 day
Tubulin (Homo sapiens) [16] = biological target: T1, Tubulin (Homo sapiens) (UniProt P68371+Q9H4B7+P0DPH7+P68366+Q13509+Q71U36+P04350+Q3ZCM7+P07437+P68363+Q9BQE3+Q6PEY2+Q13885+Q9BVA1+Q9BUF5); assay: Inhibition of tubulin assembly in human COLO357 cells assessed as disruption of mitotic spindle at 5 nM incubated for 24 hrs by Hoechst 33342 staining based confocal microscopic analysis; format: cell-based
Tubulin (Homo sapiens) [17] = biological target: T1, Tubulin (Homo sapiens); assay: Inhibition of tubulin assembly in human COLO357 cells assessed as induction of tubulin dissipation at 5 nM incubated for 24 hrs by Hoechst 33342 staining based confocal microscopic analysis; format: cell-based
Tubulin (Homo sapiens) [18] = biological target: T1, Tubulin (Homo sapiens); assay: Inhibition of tubulin assembly in human COLO357 cells assessed as induction of chromosome disturbance at 5 nM incubated for 24 hrs by Hoechst 33342 staining based confocal microscopic analysis; format: cell-based
Tubulin (Homo sapiens) [19] = biological target: T1, Tubulin (Homo sapiens); assay: Inhibition of tubulin assembly in human SW-620 cells assessed as disruption of mitotic spindle at 5 nM incubated for 24 hrs by Hoechst 33342 staining based confocal microscopic analysis; format: cell-based
Tubulin (Homo sapiens) [20] = biological target: T1, Tubulin (Homo sapiens); assay: Inhibition of tubulin assembly in human SW-620 cells assessed as induction of tubulin dissipation at 5 nM incubated for 24 hrs by Hoechst 33342 staining based confocal microscopic analysis; format: cell-based
Tubulin (Homo sapiens) [21] = biological target: T1, Tubulin (Homo sapiens); assay: Inhibition of tubulin assembly in human SW-620 cells assessed as induction of chromosome disturbance at 5 nM incubated for 24 hrs by Hoechst 33342 staining based confocal microscopic analysis; format: cell-based
Ovis aries = species: Ovis aries; assay: Inhibition of lamb brain tubulin polymerization assessed as reduction in microtubule assembly at 0.5 to 5 uM incubated for 40 mins at […] by spectrophotometric analysis relative to control; format: tissue-based; conditions: dose 0.5-5 µM
[22] = Acute toxicity in C57BL/6 mouse assessed as mouse death at 10 mg/kg, iv; format: organism-based; conditions: in vivo

Row | IC50 (COLO357 [1]) [nM] | IC50 (SW-620 [2]) [nM] | IC50 (Raji) [nM] | IC50 (PANC-1) [nM] | IC50 (HeLa) [nM] | Structure (SMILES) | IC50 (HEK293) [nM] | IC50 (HaCaT) [nM] | also measured
1 | 830 | 4100 | 3900 | 820 | 805 | COC(=O)Cc1coc2cc3c(cc12)-c1c(cc(OC)c(OC)c1OC)CC[C@@H]3NC(C)=O | 4420 | 810 | –
2 | > 4000 | > 4000 | > 4000 | – | – | COC(=O)/C=C/c1cc2c(cc1O)[C@@H](NC(C)=O)CCc1cc(OC)c(OC)c(OC)c1-2 | > 4000 | – | –
3 | 870 | 160 | 837 | – | – | COc1cc(-c2cc(=O)oc3cc4c(cc23)-c2c(cc(OC)c(OC)c2OC)CC[C@@H]4NC(C)=O)ccc1O | 4000 | – | –
4 | 5 | 6 | 3.8 | 32 | 32 | C/C=C1/COc2cc3c(cc21)-c1c(cc(OC)c(OC)c1OC)CC[C@@H]3NC(C)=O | 3.8 | 14 | –
5 | 860 | 780 | 420 | 850 | 410 | COc1cc2c(c(OC)c1OC)-c1cc3c(cc1[C@@H](NC(C)=O)CC2)OCC3=C(C)C | 400 | 390 | –
6 | > 20000 | > 20000 | 4600 | > 20000 | 4020 | COc1cc2c(c(OC)c1OC)-c1cc3c(cc1[C@@H](NC(C)=O)CC2)OC/C3=C\c1ccccc1 | > 20000 | 4370 | –
7 | 160 | 140 | 16 | – | – | COc1cc2c(c(OC)c1OC)-c1cc3c(C)cc(=O)oc3cc1[C@@H](NC(C)=O)CC2 | 32 | – | –
8 | 1.3 | 1.3 | 1.3 | 2.1 | 0.8 | COc1cc2c(c(OC)c1OC)-c1cc3c(C)coc3cc1[C@@H](NC(C)=O)CC2 | 5 | 0.5 | –

The remaining lines, values behind:

Row | Structure (SMILES) | IC50 (COLO357 [1]) [nM] | IC50 (SW-620 [2]) [nM] | IC50 (Raji) [nM] | IC50 (PANC-1) [nM] | IC50 (HeLa) [nM] | IC50 (HEK293) [nM] | IC50 (HaCaT) [nM] | also measured
9 | COc1cc2c(c(OC)c1OC)-c1cc3c(cc1[C@@H](NC(C)=O)CC2)OC/C3=C(\C)CCC=C(C)C | 4330 | > 20000 | 800 | 810 | 4250 | 4280 | 4500 | –
10 | C/C=C/C(=O)Oc1cc2c(cc1I)-c1c(cc(OC)c(OC)c1OC)CC[C@@H]2NC(C)=O | 161 | 4 | 139 | – | – | > 4000 | – | –
11 | C=C1c2cc3c(cc2OC1(F)F)[C@@H](NC(C)=O)CCc1cc(OC)c(OC)c(OC)c1-3 | 0.02 | 0.04 | 0.05 | 0.01 | 0.03 | 0.03 | 0.03 | Activity [3]: Non-Toxic; Activity [4]: Non-Toxic; Activity [5]: Non-Toxic; Activity [6]: Non-Toxic; Activity [7]: Non-Toxic; LD50 [8]: > 10 mg/kg
12 | COc1cc2c(c(OC)c1OC)-c1ccc(OC)c(=O)cc1[C@@H](NC(C)=O)CC2 [COLCHICINE] | – | 2.4 | 16 | 0.1 | 1.3 | – | 0.3 | Activity (COLO357 [9]): 31%; Activity (COLO357 [10]): 62%; Activity (COLO357 [11]): 2%; Activity (SW-620 [12]): 74%; Activity (SW-620 [13]): 7.4%; Activity (SW-620 [14]): 8.1%; Activity [3]: Toxic; Activity [4]: Toxic; Activity [5]: Toxic; Activity [6]: Toxic; Activity [7]: Toxic; LD50 at 168 h [15]: 1.6 mg/kg
13 | C=C1COc2cc3c(cc21)-c1c(cc(OC)c(OC)c1OC)CC[C@@H]3NC(C)=O | 0.04 | 0.02 | 0.03 | 0.08 | 1.7 | 0.08 | 0.3 | Activity (COLO357 [9]): 77%; Activity (COLO357 [10]): 18%; Activity (COLO357 [11]): 2%; Activity (SW-620 [12]): 76%; Activity (SW-620 [13]): 12%; Activity (SW-620 [14]): 4%; inhibition (Tubulin (Homo sapiens) [16]): Active; inhibition (Tubulin (Homo sapiens) [17]): Active; inhibition (Tubulin (Homo sapiens) [18]): Active; inhibition (Tubulin (Homo sapiens) [19]): Active; inhibition (Tubulin (Homo sapiens) [20]): Active; inhibition (Tubulin (Homo sapiens) [21]): Active; inhibition (Ovis aries): 50%; Activity [3]: Non-Toxic; Activity [4]: Non-Toxic; Activity [5]: Non-Toxic; Activity [6]: Non-Toxic; Activity [7]: Non-Toxic; LD50 [8]: 10 mg/kg; Activity [22]: Toxic
14 | CC/C=C1/COc2cc3c(cc21)-c1c(cc(OC)c(OC)c1OC)CC[C@@H]3NC(C)=O | 800 | 810 | 90 | 80 | 150 | 166 | 135 | –
15 | COc1cc2c(c(OC)c1OC)-c1cc(I)c(OC(=O)/C=C/Cl)cc1[C@@H](NC(C)=O)CC2 | 810 | 800 | 825 | – | – | 810 | – | –
16 | COc1cc2c(c(OC)c1OC)-c1cc(I)c(OC(=O)C=C(C)C)cc1[C@@H](NC(C)=O)CC2 | 160 | 32 | 160 | – | – | 805 | – | –
17 | C=CC(=O)Oc1cc2c(cc1I)-c1c(cc(OC)c(OC)c1OC)CC[C@@H]2NC(C)=O | 150 | 30 | 32 | – | – | 158 | – | –
18 | COc1cc2c(c(OC)c1OC)-c1cc(I)c(OC(=O)/C=C/C(F)(F)F)cc1[C@@H](NC(C)=O)CC2 | 30 | 6 | 180 | – | – | 170 | – | –
